Test results taken from EPA's ToxRefDB 2.

What was measured:
[1] = tested on: dog; conditions: Sub-acute repeat dose toxicity, beagle, Oral, Gavage/Intubation, dose end: 28 day, group: systemic
[2] = tested on: dog; conditions: Chronic toxicity, beagle, Oral, Gavage/Intubation, dose end: 182 day, group: systemic, systemic / in life observation / clinical signs / defecation (diarrhea) + systemic / in life observation / clinical signs / feces
[3] = tested on: dog; conditions: Sub-acute repeat dose toxicity, beagle, Oral, Gavage/Intubation, dose end: 14 day, group: systemic
[4] = tested on: mouse; conditions: Chronic toxicity, Oral, Gavage/Intubation, dose end: 182 day
[5] = tested on: dog; conditions: Chronic toxicity, beagle, Oral, Gavage/Intubation, dose end: 182 day, group: systemic
[6] = tested on: mouse; conditions: Sub-acute repeat dose toxicity, Oral, Gavage/Intubation, dose end: 28 day
[7] = tested on: mouse; conditions: Sub-acute repeat dose toxicity, Oral, Gavage/Intubation, dose end: 14 day, group: systemic
[8] = tested on: mouse; conditions: Sub-acute repeat dose toxicity, Oral, Gavage/Intubation, dose end: 28 day; remark: listed apart in the source
[9] = tested on: mouse; conditions: Combined chronic toxicity/carcinogenicity, b6c3f1, Oral, Gavage/Intubation, dose end: 103 week, group: systemic
[10] = tested on: rat; conditions: Combined chronic toxicity/carcinogenicity; fischer; Oral; Gavage/Intubation; dose end: 103 week; group: systemic; systemic / hematology / erythrocyte (rbc) count differential / erythrocyte (rbc) + systemic / hematology / hematocrit (hct) / hematocrit (…
[11] = tested on: mouse; conditions: Subchronic oral toxicity in rodents, b6c3f1, Gavage/Intubation, dose end: 13 week, group: systemic
[12] = tested on: rat; conditions: Subchronic oral toxicity in rodents, Fischer, Gavage/Intubation, dose end: 13 week, group: systemic, systemic / hematology / erythrocyte (rbc) count differential / erythrocyte (rbc) + systemic / hematology / hematocrit (hct) / hematocrit (…
[13] = systemic / clinical chemistry / cholesterol / cholesterol + systemic / clinical chemistry / triglycerides / triglycerides + systemic / …
[14] = systemic / in life observation / clinical signs / defecation (diarrhea) + systemic / in life observation / clinical signs / delayed sexual …
[15] = systemic / in life observation / body weight / body weight + systemic / in life observation / clinical signs / defecation (diarrhea) + …
[16] = systemic / pathology gross / oral mucosa / discolored
[17] = group: reproductive, reproductive / reproductive performance / estrous cycle / absent corpora lutea
[18] = group: systemic, systemic / hematology / erythrocyte (rbc) count differential / erythrocyte (rbc) + systemic / in life observation / body weight / body …
[19] = systemic / in life observation / clinical signs / abnormal feces
[20] = systemic / in life observation / clinical signs / abnormal feces + systemic / in life observation / body weight / body weight + systemic / …
[21] = group: maternal, reproductive / reproductive performance / estrous cycle / absent corpora lutea
[22] = group: systemic, systemic / clinical chemistry / alkaline phosphatase (alp/alk) / alkaline phosphatase (alp/alk) + systemic / hematology / mean corpuscular (…
[23] = group: systemic, systemic / hematology / mean corpuscular (cell) volume (mcv) / mean corpuscular (cell) volume (mcv) + systemic / hematology / mean …
[24] = systemic / clinical chemistry / albumin / albumin + systemic / clinical chemistry / protein / protein + systemic / hematology / erythrocyte…
[25] = systemic / in life observation / body weight / body weight
[26] = systemic / pathology microscopic / blood / lymphoma malignant + systemic / pathology microscopic / kidney / hemosiderosis + systemic / …
[27] = systemic / pathology microscopic / blood / lymphoma malignant + systemic / pathology microscopic / liver / hematopoietic cell proliferation…
[28] = systemic / hematology / erythrocyte (rbc) count differential / erythrocyte (rbc) + systemic / hematology / hematocrit (hct) / hematocrit (…
[29] = systemic / hematology / hematocrit (hct) / hematocrit (hct) + systemic / pathology microscopic / spleen / hematopoietic cell proliferation…

Compound: CNC(=O)c1ccccc1Sc1ccc2c(/C=C/c3ccccn3)n[nH]c2c1 [Axitinib]
- LOAEL [1, 13]: > 50 mg/kg/day
- NOAEL [1, 13]: ≥ 50 mg/kg/day
- LEL [1, 14]: 5 mg/kg/day
- NEL [1, 14]: < 5 mg/kg/day
- LEL [2]: 1 mg/kg/day
- LOAEL [2]: > 5 mg/kg/day
- NEL [2]: < 1 mg/kg/day
- NOAEL [2]: ≥ 5 mg/kg/day
- LOAEL [3, 15]: > 150 mg/kg/day
- NOAEL [3, 15]: ≥ 150 mg/kg/day
- LEL [3, 16]: 12 mg/kg/day
- NEL [3, 16]: < 12 mg/kg/day
- LEL [4, 17]: 5 mg/kg/day
- LOAEL [4, 17]: > 125 mg/kg/day
- NEL [4, 17]: < 5 mg/kg/day
- NOAEL [4, 17]: ≥ 125 mg/kg/day
- LOAEL [4, 18]: > 125 mg/kg/day
- NEL [4, 18]: 5 mg/kg/day
- NOAEL [4, 18]: ≥ 125 mg/kg/day
- LEL ([4]; group: systemic, systemic / hematology / erythrocyte (rbc) count differential / erythrocyte (rbc) + systemic / in life observation / clinical signs / poor …): 15 mg/kg/day
- LEL [5, 19]: 1 mg/kg/day
- NEL [5, 19]: < 1 mg/kg/day
- LOAEL [5, 20]: > 5 mg/kg/day
- NOAEL [5, 20]: ≥ 5 mg/kg/day
- LEL [6, 21]: 125 mg/kg/day
- LOAEL [6, 21]: > 125 mg/kg/day
- NEL [6, 21]: 15 mg/kg/day
- NOAEL [6, 21]: ≥ 125 mg/kg/day
- LOAEL [6, 22]: > 125 mg/kg/day
- NEL [6, 22]: 5 mg/kg/day
- NOAEL [6, 22]: ≥ 125 mg/kg/day
- LEL [6, 23]: 15 mg/kg/day
- LOAEL [7, 24]: > 250 mg/kg/day
- NOAEL [7, 24]: ≥ 250 mg/kg/day
- LEL [7, 25]: 25 mg/kg/day
- NEL [7, 25]: < 25 mg/kg/day
- LEL [8, 21]: 125 mg/kg/day
- LOAEL [8, 21]: > 125 mg/kg/day
- NEL [8, 21]: 15 mg/kg/day
- NOAEL [8, 21]: ≥ 125 mg/kg/day
- LOAEL [8, 22]: > 125 mg/kg/day
- NEL [8, 22]: 5 mg/kg/day
- NOAEL [8, 22]: ≥ 125 mg/kg/day
- LEL [8, 23]: 15 mg/kg/day

Compound: Cl.Nc1ccc(Cl)cc1 [4-Chloroaniline hydrochloride]
- LOAEL [9, 26]: > 30 mg/kg/day
- NOAEL [9, 26]: ≥ 30 mg/kg/day
- LEL [9, 27]: 3 mg/kg/day
- NEL [9, 27]: < 3 mg/kg/day
- LEL [10]: 2 mg/kg/day
- LOAEL [10]: 6 mg/kg/day
- NEL [10]: < 2 mg/kg/day
- NOAEL [10]: 2 mg/kg/day
- LOAEL [11, 28]: 15 mg/kg/day
- NOAEL [11, 28]: 7.5 mg/kg/day
- LEL [11, 29]: 7.5 mg/kg/day
- NEL [11, 29]: < 7.5 mg/kg/day
- LEL [12]: 5 mg/kg/day
- LOAEL [12]: > 80 mg/kg/day
- NEL [12]: < 5 mg/kg/day
- NOAEL [12]: ≥ 80 mg/kg/day
